Values joined by “and” are separate entries in the source; they are usually repeats but may differ in a detail not shown here. Identical values can stand only once. Like-named read-outs stand apart in the source and are kept apart here.
Legend:
[1] = target: CfEcR-DEF mutant V128F/A110P (Choristoneura fumiferana, UniProt O77255, A393P/V411F); experiment: cell-based
Procedure: (§1) This construct was prepared in the same way as in switch 1.1 above except wild-type CfEcR-DEF was replaced with mutant CfEcR-DEF comprising a ligand binding domain comprising a substitution mutation selected from Table 1 below.
(§2) DNAs were transfected into mouse NIH3T3 cells (ATCC) as follows. Standard methods for culture and maintenance of the cells were followed. Cells were harvested and plated 96-well plates at 2,500 cells per well, in 50 μL of growth medium containing 10% fetal bovine serum (FBS). Twenty-four hours later, the cells were treated with 35 μL of serum-free growth medium containing either dimethylsulfoxide (DMSO; control) or a DMSO solution of ligand. The cells were then transfected using Superfect (Qiagen Inc.) transfection reagent. For each well, 0.625 μL of Superfect was mixed with 14.2 μL of serum-free growth medium. 0.16 μg of reporter construct and 0.04 μg of each receptor construct were added to the transfection reagent mix. The contents of the transfection mix were mixed in a vortex mixer and let stand at room temperature for 30 minutes. At the end of incubation, 15 μL of transfection mix was added to the cells. The cells were maintained at 37° C. and 5% CO2 for 48 hours in 5% FBS.
(§3) Reporter Assays: Cells were harvested 40 hours after adding ligands. 125 μL of passive lysis buffer (part of Dual-Luciferase reporter assay system from Promega Corporation) were added to each well of the […] plate. The plates were placed on a rotary shaker for 15 minutes. Twenty μL of lysate were assayed. Luciferase activity was measured using Dual-Luciferase reporter assay system from Promega Corporation following the manufacturer's instructions. Fold induction (FI) activities were calculated by dividing relative light units (“RLU”) in ligand treated cells with RLU in DMSO treated cells (untreated control).

[2] = target: CfEcR-DEF mutant V96S (Choristoneura fumiferana, UniProt O77255, V379S); experiment: cell-based
Chain of CfEcR-DEF mutant V96S (O77255 entry or part of it V379S): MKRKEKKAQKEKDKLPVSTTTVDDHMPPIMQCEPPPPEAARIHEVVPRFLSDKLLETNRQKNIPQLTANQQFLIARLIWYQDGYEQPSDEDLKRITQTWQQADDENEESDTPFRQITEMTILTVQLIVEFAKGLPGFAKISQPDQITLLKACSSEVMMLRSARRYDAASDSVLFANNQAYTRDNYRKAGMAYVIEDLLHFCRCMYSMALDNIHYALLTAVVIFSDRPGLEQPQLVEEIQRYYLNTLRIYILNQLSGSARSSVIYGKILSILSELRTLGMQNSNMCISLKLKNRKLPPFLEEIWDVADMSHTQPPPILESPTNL
Chain of CfEcR-DEF mutant V96S (P28702 299-449, further chain): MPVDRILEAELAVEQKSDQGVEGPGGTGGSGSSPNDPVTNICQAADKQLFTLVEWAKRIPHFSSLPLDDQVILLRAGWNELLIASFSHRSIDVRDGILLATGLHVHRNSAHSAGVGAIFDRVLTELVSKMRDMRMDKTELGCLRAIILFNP
Procedure: as §1, §2, §3

[3] = target: CfEcR-DEF mutant R95H (Choristoneura fumiferana, UniProt O77255, R378H); experiment: cell-based
Chain of CfEcR-DEF mutant R95H (P28702 299-449): as the sequence (P28702 299-449, further chain) above
Chain of CfEcR-DEF mutant R95H (O77255 entry or part of it R378H): as the sequence (O77255 entry or part of it V379S) above, with R160H, S161V counted along it
Procedure: as §1, §2, §3

[4] = target: CfEcR-DEF mutant V107I/Y127E/A110P (Choristoneura fumiferana, UniProt O77255, A393P/V390I/Y410E); experiment: cell-based
Chain of CfEcR-DEF mutant V107I/Y127E/A110P (P28702 299-449, stated change not applied): as the sequence (P28702 299-449, further chain) above
Chain of CfEcR-DEF mutant V107I/Y127E/A110P (O77255 entry or part of it V390I/A393P/Y410E): as the sequence (O77255 entry or part of it V379S) above, with S161V, V172I, A175P, Y192E counted along it
Procedure: as §1, §2, §3

[5] = target: CfEcR-DEF mutant F48L (Choristoneura fumiferana, UniProt O77255, F331L); experiment: cell-based
Chain of CfEcR-DEF mutant F48L (P28702 299-449): as the sequence (P28702 299-449, further chain) above
Chain of CfEcR-DEF mutant F48L (O77255 entry or part of it F331L): as the sequence (O77255 entry or part of it V379S) above, with F113L, S161V counted along it
Procedure: as §1, §2, §3

[6] = target: CfEcR-DEF mutant F48W (Choristoneura fumiferana, UniProt O77255, F331W); experiment: cell-based
Chain of CfEcR-DEF mutant F48W (P28702 299-449): as the sequence (P28702 299-449, further chain) above
Chain of CfEcR-DEF mutant F48W (O77255 entry or part of it F331W): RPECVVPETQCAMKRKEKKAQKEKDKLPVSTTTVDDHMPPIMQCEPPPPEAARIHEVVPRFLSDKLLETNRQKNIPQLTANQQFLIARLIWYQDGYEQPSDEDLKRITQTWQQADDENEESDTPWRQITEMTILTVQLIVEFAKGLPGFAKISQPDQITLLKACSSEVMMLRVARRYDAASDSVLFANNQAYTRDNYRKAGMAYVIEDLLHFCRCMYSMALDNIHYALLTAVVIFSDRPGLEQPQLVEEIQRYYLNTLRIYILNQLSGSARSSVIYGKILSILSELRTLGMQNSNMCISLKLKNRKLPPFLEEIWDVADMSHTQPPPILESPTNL
Procedure: as §1, §2, §3

[7] = target: CfEcR-DEF mutant W238E (Choristoneura fumiferana, UniProt O77255, W521E); experiment: cell-based
Chain of CfEcR-DEF mutant W238E (P28702 299-449): as the sequence (P28702 299-449, further chain) above
Chain of CfEcR-DEF mutant W238E (O77255 entry or part of it W521E): as the sequence (O77255 entry or part of it V379S) above, with S161V, W303E counted along it
Procedure: as §1, §2, §3

[8] = target: CfEcR-DEF mutant V96E (Choristoneura fumiferana, UniProt O77255, V379E); experiment: cell-based
Chain of CfEcR-DEF mutant V96E (O77255 entry or part of it V379E): as the sequence (O77255 entry or part of it V379S) above, with S161E counted along it
Chain of CfEcR-DEF mutant V96E (P28702 299-449, further chain): as the sequence (P28702 299-449, further chain) above
Procedure: as §1, §2, §3

[9] = target: CfEcR-DEF mutant Y120M (Choristoneura fumiferana, UniProt O77255, Y403M); experiment: cell-based
Chain of CfEcR-DEF mutant Y120M (O77255 entry or part of it Y403M): as the sequence (O77255 entry or part of it V379S) above, with S161V, Y185M counted along it
Chain of CfEcR-DEF mutant Y120M (P28702 299-449, further chain): as the sequence (P28702 299-449, further chain) above
Procedure: as §1, §2, §3

[10] = target: CfEcR-DEF mutant F109M (Choristoneura fumiferana, UniProt O77255, F392M); experiment: cell-based
Chain of CfEcR-DEF mutant F109M (O77255 entry or part of it F392M): as the sequence (O77255 entry or part of it F331W) above, with W125F, F186M counted along it
Chain of CfEcR-DEF mutant F109M (P28702 299-449, further chain): as the sequence (P28702 299-449, further chain) above
Procedure: as §1, §2, §3

[11] = target: CfEcR-DEF mutant T52P (Choristoneura fumiferana, UniProt O77255, T335P); experiment: cell-based
Chain of CfEcR-DEF mutant T52P (P28702 298-449): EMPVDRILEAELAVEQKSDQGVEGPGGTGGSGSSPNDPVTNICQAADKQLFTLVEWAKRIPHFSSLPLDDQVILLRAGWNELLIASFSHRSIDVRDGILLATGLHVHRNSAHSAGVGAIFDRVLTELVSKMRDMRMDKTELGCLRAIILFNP
Chain of CfEcR-DEF mutant T52P (O77255 entry or part of it T335P): as the sequence (O77255 entry or part of it F331W) above, with W125F, T129P counted along it
Procedure: as §1, §2, §3

[12] = target: CfEcR-DEF mutant V128F (Choristoneura fumiferana, UniProt O77255, V411F); experiment: cell-based
Chain of CfEcR-DEF mutant V128F (P28702 299-449): as the sequence (P28702 299-449, further chain) above
Chain of CfEcR-DEF mutant V128F (O77255 entry or part of it V411F): as the sequence (O77255 entry or part of it V379S) above, with S161V, V193F counted along it
Procedure: as §1, §2, §3

[13] = target: CfEcR-DEF mutant F48Y (Choristoneura fumiferana, UniProt O77255, F331Y); experiment: cell-based
Chain of CfEcR-DEF mutant F48Y (O77255 entry or part of it F331Y): as the sequence (O77255 entry or part of it F331W) above, with W125Y counted along it
Chain of CfEcR-DEF mutant F48Y (P28702 299-449, further chain): as the sequence (P28702 299-449, further chain) above
Procedure: as §1, §2, §3

[14] = target: CfEcR-DEF mutant A110N (Choristoneura fumiferana, UniProt O77255, A393N); experiment: cell-based
Chain of CfEcR-DEF mutant A110N (O77255 entry or part of it A393N): as the sequence (O77255 entry or part of it F331W) above, with W125F, A187N counted along it
Chain of CfEcR-DEF mutant A110N (P28702 299-449, stated change not applied, further chain): as the sequence (P28702 299-449, further chain) above
Procedure: as §1, §2, §3

[15] = target: CfEcR-DEF mutant L132M (Choristoneura fumiferana, UniProt O77255, L415M); experiment: cell-based; format: cell-based; settings: for Emax: NIH3T3, 40 h, read-out: Rel Max FI, mutant L132M
Chain of CfEcR-DEF mutant L132M (O77255 entry or part of it L415M): as the sequence (O77255 entry or part of it F331W) above, with W125F, L209M counted along it
Chain of CfEcR-DEF mutant L132M (P28702 298-449, further chain): as the sequence (P28702 298-449) above
Procedure: as §1, §2, §3

[16] = target: CfEcR-DEF mutant V107I/Y127E/G (Choristoneura fumiferana, UniProt O77255, INS541G/V390I/Y410E); experiment: GAL4-driven luciferase reporter assay in NIH3T3 cells; format: cell-based
Chain of CfEcR-DEF mutant V107I/Y127E/G (P28702 299-449, stated change not applied): as the sequence (P28702 299-449, further chain) above
Chain of CfEcR-DEF mutant V107I/Y127E/G (O77255 entry or part of it V390I/Y410E/INS541G): as the sequence (O77255 entry or part of it V379S) above, with S161V counted along it
Procedure: as §1
The Gal-4-CfEcR-DEF(VYG) mutant was created by inserting an extra glycine at the C-terminal end of EcR substitution mutant V107I/Y127E [CfECR(VY)] by PCR. Essentially, this was done in two steps: PCR-amplification of CfEcR-DEF(VYG) and substitution of the CfEcR(VY) in the vector GAL4-CfEcR DEF(VY) pBIND 1-9 with the PCR-amplified CfEcR-DEF(VYG). The CfEcR-DEF region (with the extra glycine) was amplified by using the vector GAL4-CfEcR DEF(VY) pBIND 1-9 as template and the following PCR primers: […]
as §2, §3

[17] = NIH3T3, 40 h, read-out: Rel Max FI

Chain of CfEcR-DEF mutant V128F/A110P (P28702 299-449, stated change not applied): as the sequence (P28702 299-449, further chain) above
Chain of CfEcR-DEF mutant V128F/A110P (O77255 entry or part of it A393P/V411F): as the sequence (O77255 entry or part of it V379S) above, with S161V, A175P, V193F counted along it

## CC(C)(O)CC[C@@H](O)[C@](C)(O)[C@H]1CC[C@@]2(O)C3=CC(=O)[C@@H]4C[C@@H](O)[C@@H](O)C[C@]4(C)[C@H]3CC[C@]12C [20E, 20-hydroxyecdysone]
[1]; mutant V128F/A110P
  Rel Max FI: 0
[1]; mutant V128F/A110P, read-out: EC50
  EC50: > 33 µM
[1]; mutant V128F/A110P, relative to max fold induction of GS-E ligand
  Rel Max FI: 0.00
[2]; mutant V96S, read-out: EC50
  EC50: > 33000 nM
[2]; mutant V96S, relative to max fold induction of GS-E ligand
  Rel Max FI: 0.02
[3]; mutant R95H
  Rel Max FI: 0
[3]; mutant R95H, read-out: EC50
  EC50: > 33 µM
[4]; mutant V107I/Y127E/A110P, read-out: EC50
  EC50: > 33000 nM
[4]; mutant V107I/Y127E/A110P, relative to max fold induction of GS-E ligand
  Rel Max FI: 0.00
[5]; mutant F48L, read-out: EC50
  EC50: > 33000 nM
[5]; mutant F48L, relative to max fold induction of GS-E ligand
  Rel Max FI: 0
[6]; mutant F48W, read-out: EC50
  EC50: > 33000 nM
[6]; mutant F48W, relative to max fold induction of GS-E ligand
  Rel Max FI: 0
[7]; mutant W238E
  Rel Max FI: 0
[7]; mutant W238E, read-out: EC50
  EC50: > 33 µM
[8]; mutant V96E
  Rel Max FI: 0
[8]; mutant V96E, read-out: EC50
  EC50: > 33000 nM
[9]; mutant Y120M
  Rel Max FI: 0
[9]; mutant Y120M, read-out: EC50
  EC50: > 33 µM
[10]; mutant F109M, read-out: EC50
  EC50: > 33000 nM
[10]; mutant F109M, relative to max fold induction of GS-E ligand
  Rel Max FI: 0
[11]; mutant T52P
  Rel Max FI: 0.02
[11]; mutant T52P, read-out: EC50
  EC50: > 33 µM
[12]; mutant V128F
  Rel Max FI: 0.02
[12]; mutant V128F, read-out: EC50
  EC50: ~10 µM
[13]; mutant F48Y, read-out: EC50
  EC50: > 33000 nM
[13]; mutant F48Y, relative to max fold induction of GS-E ligand
  Rel Max FI: 0
[14]; mutant A110N, read-out: EC50
  EC50: > 33000 nM
[14]; mutant A110N, relative to max fold induction of GS-E ligand
  Rel Max FI: 0
[15]; mutant L132M
  EC50: > 33 µM
  Rel Max FI: 0.01
[15]; mutant L132M, relative to max fold induction of GS-E ligand
  Rel Max FI: 0
[16]; mutant V107I/Y127E/G, read-out: EC50
  EC50: > 33000 nM
[16]; mutant V107I/Y127E/G, relative to max fold induction of GS-E ligand
  Rel Max FI: 0.03

## CCc1cccc(C(=O)NN(C(=O)c2cc(C)cc(C)c2)C(C)(C)C)c1C [RG-101691, 3,5-Dimethyl-benzoic acid N-tert-butyl-N′-(3-ethyl-2-methyl-benzoyl)-hydrazide]
[1]
  EC50: ~5 µM
[1]; [17]
  Emax: 8%
[1]; mutant V128F/A110P, 2400 min
  Rel Max FI: 0.08
[2]
  EC50: 870 nM
[2]; [17]
  Emax: 90%
[3]
  EC50: 3.9 µM
[3]; [17]
  Emax: 96%
[4]
  EC50: 340 nM
[4]; [17]
  Emax: 96%
[5]
  EC50: 300 nM
[5]; [17]
  Emax: 81%
[6]
  EC50: 1530 nM
[6]; [17]
  Emax: 74%
[7]
  EC50: ~8 µM
[7]; [17]
  Emax: 71%
[8]
  EC50: 1620 nM
[8]; [17]
  Emax: 81%
[9]
  EC50: ~10 µM
[9]; [17]
  Emax: 30%
[10]
  EC50: 650 nM
[10]; [17]
  Emax: 75%
[11]
  EC50: > 33 µM
[11]; [17]
  Emax: 2%
[12]; EC50, mutant V128F
  EC50: ~8.3 µM and 5.4 µM
[12]; [17]
  Emax: 4%
[13]
  EC50: 930 nM
[13]; [17]
  Emax: 69%
[14]
  EC50: 880 nM
[14]; [17]
  Emax: 99%
[15]
  Emax: 8%
[15]; relative to max fold induction of GS-E ligand
  Emax: 77%
[16]
  EC50: 20 nM
[16]; [17]
  Emax: 85%

Reference: patent US9163256B2, “Mutant receptors and their use in a nuclear receptor-based inducible gene expression system” (priority 2004, dated 2015)
